Two molecules from US8933228B2, “Respiratory formulations and compounds for use therein” (Respivert, Ltd., priority 2010, dated 2015) can be followed below.

For series [1], the target named is p38 MAPK alpha (MAPK14) (Homo sapiens (Human), UniProt Q16539). Kind of series: Enzyme inhibition assay (FRET, Z-LYTE), p38 MAPK alpha via MAPKAP-K2 activation. Format: biochemical. Particulars: read-out: Enzyme Profile: IC50 Values p38α. Summed up: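 Recombinant p38 MAPKα was preincubated with compound 2 hr at RT. Its activity was measured indirectly through MAPKAP-K2 activation/phosphorylation, read by Z-LYTE FRET after 1 hr protease development. Phosphorylation was taken from the coumarin/fluorescein emission ratio.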

Series [2] concerns the target p38 MAPK γ (MAPK12) (Homo sapiens (Human), UniProt P53778). The series is described as follows: Enzyme inhibition assay (FRET, Z-LYTE), p38 MAPK gamma. In kind it is biochemical. Conditions: read-out: Enzyme Profile: IC50 Values p38γ. The method, boiled down:
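Recombinant phosphorylated human p38γ preincubated with compound 2 hr at RT in HEPES buffer, then reacted 1 hr with 2 μM FRET peptide and 100 μM ATP. Protease development 1 hr; phosphorylation derived from coumarin/fluorescein emission ratio.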

Series [3] concerns the target HCK enzyme (Homo sapiens (Human), UniProt P08631). The series is described as follows: HCK enzyme inhibition assay (FRET, Z'-LYTE). Conditions: read-out: Enzyme Profile: IC50 Values HCK. In kind it is biochemical.
Series [4] deals with cSrc enzyme (Homo sapiens (Human), UniProt P12931). The series is described as follows: c-SRC enzyme inhibition assay (FRET, Z'-LYTE). In kind it is biochemical. Conditions: read-out: Enzyme Profile: IC50 Values cSrc.
Series [5] relates to TNFα release in THP-1 cells. Kind of series: LPS-induced TNFα release in THP-1 cells. In kind it is cell-based. Conditions: Homo sapiens; THP-1 cells, LPS 3 μg/mL, 4 hr; read-out: THP1 (LPS) TNFα IC50. The method, then:
The inhibition of TNFα production was calculated at each concentration by comparison with vehicle control.

The subject of series [6] is TNFα release in d-U937 cells. Kind of series: LPS-induced TNFα release in d-U937 cells. Format: cell-based. Particulars: Homo sapiens, dU937, LPS 0.1 μg/mL, 4 hr, relative to 10 μg/mL BIRB796, read-out: d-U937 (LPS) TNFα REC50. Summed up: (§1)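 U937 cells made macrophage-like by 48–72 h with PMA (100 ng/mL), then stimulated with LPS (E. coli O111:B4) for 4 h. Supernatant TNFα and IL-8 measured by sandwich ELISA; inhibition versus vehicle control at each concentration, REC50 from concentration-response curve.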

Series [7] deals with IL-8 release in d-U937 cells. Kind of series: LPS-induced IL-8 release in d-U937 cells. In kind it is cell-based. Conditions: Homo sapiens, dU937; d-U937 cells, LPS 0.1 μg/mL, 4 hr; read-out: d-U937 (LPS) IL-8 IC50. The method, boiled down:
as §1

Series [8] deals with ICAM-1 expression in BEAS2B cells. The series is described as follows: Poly I:C-induced ICAM-1 induction in BEAS2B cells. In kind it is cell-based. Particulars: Homo sapiens, BEAS-2B; BEAS2B cells, poly I:C 1 μg/mL, 18 hr; read-out: BEAS2B (polyIC) ICAM1 IC50. The method, boiled down: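 Human bronchial epithelial BEAS2B cells pre-incubated 2 hr with test compounds at final concentrations, then transfected with poly I:C (1 μg/mL) using Oligofectamine. Cell-surface ICAM-1 quantified by cell-based ELISA with HRP-conjugated anti-rabbit IgG secondary.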

Series [9] concerns HRV16. The series is described as follows: Rhinovirus-titre assay. In kind it is cell-based, human rhinovirus. Particulars: Human rhinovirus sp., HRV16; cell not marked b; test compounds 0.04 μg/mL per method (footnote b, 0.2 μg/mL); read-out: HRV titre (inhibitory %): % inhibition observed vs. HRV16 infection control.
Series [10] has as its system Differentiated U937 cells. The series is described as follows: MTT assay: cell viability. Format: cell-based, human. Particulars: 1 μg/ml; for d-U937 MTT Assay 4 h: 5% FCS; for d-U937 MTT Assay 24 h: 10% FCS. The method, boiled down: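 Differentiated U937 cells pre-incubated with compound either 4 hr in 5% FCS or 24 h in 10% FCS, then 1 hr MTT. Formazan dissolved in DMSO, absorbance at 550 nm. Percentage viability loss relative to 0.5% DMSO vehicle; apparent increases appear as negative percentages.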
A general note: Tetrazolium dyes change colour on reduction, which living cells bring about.

Molecules are shown by their SMILES.

In general, IC50 refers to the midpoint of a concentration-inhibition curve. The inhibition is the relative decrease from the control value, in per cent. As for `CC(C)(C)c1cc(NC(=O)Nc2ccc(Oc3ccnc4[nH]c(=O)cnc34)c3ccccc23)n(-c2ccc(S(C)(=O)=O)cc2)n1` [Example 31, 1-(3-(tert-butyl)-1-(4-(methylsulfonyl)phenyl)-1H-pyrazol-5-yl)-3-(4-((3-oxo-3,4-dihydropyrido[2,3-b]pyrazin-8-yl)oxy)naphthalen-1-yl)urea], the IC50 in series [1] stood at 5 nM; in [2], 47 nM; in series [3] it was 3 nM; in [4], 6 nM; in series [5] it was 62 nM; in [7], 68 nM. In addition, the IC50 in series [8] is 178 nM. In addition, the EC50 in [6] was found to be 60 nM. Further, the inhibition at 0.04 µg/mL in [9] is 8%. Further, in [10], the “d-U937 MTT Assay 4 h” value is “− (− and + indicate the result is below and above the no significant effect threshold, respectively (<30% inhibition at a concentration of 1 μg/ml))”. Besides, the “d-U937 MTT Assay 24 h” value in [10] was “− (− and + indicate the result is below and above the no significant effect threshold, respectively (<30% inhibition at a concentration of 1 μg/ml))”.
Regarding `CSc1ccc(-n2nc(C(C)(C)C)cc2NC(=O)Nc2ccc(Oc3ccnc4[nH]c(=O)cnc34)c3ccccc23)cc1` [Example 33, 1-(3-(tert-butyl)-1-(4-(methylthio)phenyl)-1H-pyrazol-5-yl)-3-(4-((3-oxo-3,4-dihydropyrido[2,3-b]pyrazin-8-yl)oxy)naphthalen-1-yl)urea], the concentration for half-maximal inhibition (IC50) came out at 5 nM in [1]; 74 nM in [2]; 4 nM in series [3]; 7 nM in series [4]; 13 nM in [5]; 9.4 nM in series [7]. Also, in [8], the IC50 is 3.2 nM. Also, the EC50 in series [6] was determined as 8.2 nM. For the same molecule, the inhibition at 0.04 µg/mL in [9] amounted to 80%. In addition, the “d-U937 MTT Assay 4 h” value in series [10] is “− (− and + indicate the result is below and above the no significant effect threshold, respectively (<30% inhibition at a concentration of 1 μg/ml))”. Moreover, the “d-U937 MTT Assay 24 h” value in series [10] is “− (− and + indicate the result is below and above the no significant effect threshold, respectively (<30% inhibition at a concentration of 1 μg/ml))”.
